Data: ChEMBL document CHEMBL1201862, “PubChem BioAssay data set” (2004)
The source made the active and inactive calls.

How the values were obtained:
[1] = target: T1, Corticotropin-releasing factor receptor 2/Corticotropin-releasing factor-binding protein (Homo sapiens, UniProt P24387+Q13324); experiment: Dose Response confirmation of uHTS hits for small molecule antagonists of the CRF-binding protein and CRF-R2 receptor complex.; format: functional; settings: read-out: IC50_Mean
T1 sequence (Q13324 whole entry): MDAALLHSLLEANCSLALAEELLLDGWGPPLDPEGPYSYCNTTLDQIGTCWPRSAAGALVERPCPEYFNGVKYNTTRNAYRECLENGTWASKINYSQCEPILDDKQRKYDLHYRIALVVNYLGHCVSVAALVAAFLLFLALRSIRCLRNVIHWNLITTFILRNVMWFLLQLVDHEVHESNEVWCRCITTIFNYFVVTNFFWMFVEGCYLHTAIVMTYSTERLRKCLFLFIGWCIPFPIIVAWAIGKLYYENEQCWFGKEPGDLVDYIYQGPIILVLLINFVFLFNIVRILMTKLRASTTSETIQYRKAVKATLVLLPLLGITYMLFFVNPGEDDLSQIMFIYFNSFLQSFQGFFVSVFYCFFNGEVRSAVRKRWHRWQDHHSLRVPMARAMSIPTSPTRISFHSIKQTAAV
T1 sequence (P24387 whole entry): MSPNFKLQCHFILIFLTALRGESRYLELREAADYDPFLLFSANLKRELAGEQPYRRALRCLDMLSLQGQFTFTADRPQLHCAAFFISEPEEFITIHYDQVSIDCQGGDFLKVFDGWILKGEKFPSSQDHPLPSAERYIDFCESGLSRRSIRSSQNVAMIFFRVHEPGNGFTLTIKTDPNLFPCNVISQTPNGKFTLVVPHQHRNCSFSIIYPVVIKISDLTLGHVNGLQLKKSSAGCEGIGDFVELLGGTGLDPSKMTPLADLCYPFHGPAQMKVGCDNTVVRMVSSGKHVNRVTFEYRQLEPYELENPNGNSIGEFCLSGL

[2] = target: T1, Corticotropin-releasing factor receptor 2/Corticotropin-releasing factor-binding protein; experiment: activators of CRF receptor 2 with binding protein – uHTS hits, confirmation (AID 602473); format: functional; settings: read-out: EC50_Mean
[3] = target: T2, Heat shock factor protein 1 (Mus musculus, UniProt P38532); experiment: inhibition of MG132-induced HSE-luciferase signal, confirmation, cell-based, NIH3T3, luminescence, dose retest (AID 2382); format: functional;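 also: NIH3T3 fibroblasts with HSF1-driven luciferase reporter stressed by proteasome inhibitor MG132; luminescence from HSF1-driven luciferase expression after 8 hours of MG132 stress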
T2 sequence (P38532 whole entry): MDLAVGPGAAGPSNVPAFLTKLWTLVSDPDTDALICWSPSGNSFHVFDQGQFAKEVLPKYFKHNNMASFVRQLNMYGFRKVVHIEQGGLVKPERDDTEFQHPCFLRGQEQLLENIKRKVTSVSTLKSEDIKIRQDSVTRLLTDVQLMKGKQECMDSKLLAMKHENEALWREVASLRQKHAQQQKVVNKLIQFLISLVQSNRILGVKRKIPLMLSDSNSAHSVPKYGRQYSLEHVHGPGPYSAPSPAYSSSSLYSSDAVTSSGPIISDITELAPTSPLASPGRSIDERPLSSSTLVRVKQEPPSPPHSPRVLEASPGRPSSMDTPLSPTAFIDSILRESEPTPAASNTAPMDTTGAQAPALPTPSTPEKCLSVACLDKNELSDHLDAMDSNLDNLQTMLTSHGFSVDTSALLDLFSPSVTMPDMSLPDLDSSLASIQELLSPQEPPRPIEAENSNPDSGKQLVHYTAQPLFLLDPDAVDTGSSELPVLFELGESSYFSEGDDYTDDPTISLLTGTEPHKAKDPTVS

[4] = Luminescence Cell-Based Dose Confirmation HTS to Identify Inhibitors of Platelet Dense Granule Release. [Related pubchem assays: 1663 (Primary HTS), 1678 (Summary of Project)]; format: functional
[5] = target: Luciferin 4-monooxygenase (Photinus pyralis, UniProt P08659); experiment: firefly luciferase enzyme inhibitors, dose response, biochemical, luminescence (AID 1891)
Sequence of Luciferin 4-monooxygenase (P08659 whole entry): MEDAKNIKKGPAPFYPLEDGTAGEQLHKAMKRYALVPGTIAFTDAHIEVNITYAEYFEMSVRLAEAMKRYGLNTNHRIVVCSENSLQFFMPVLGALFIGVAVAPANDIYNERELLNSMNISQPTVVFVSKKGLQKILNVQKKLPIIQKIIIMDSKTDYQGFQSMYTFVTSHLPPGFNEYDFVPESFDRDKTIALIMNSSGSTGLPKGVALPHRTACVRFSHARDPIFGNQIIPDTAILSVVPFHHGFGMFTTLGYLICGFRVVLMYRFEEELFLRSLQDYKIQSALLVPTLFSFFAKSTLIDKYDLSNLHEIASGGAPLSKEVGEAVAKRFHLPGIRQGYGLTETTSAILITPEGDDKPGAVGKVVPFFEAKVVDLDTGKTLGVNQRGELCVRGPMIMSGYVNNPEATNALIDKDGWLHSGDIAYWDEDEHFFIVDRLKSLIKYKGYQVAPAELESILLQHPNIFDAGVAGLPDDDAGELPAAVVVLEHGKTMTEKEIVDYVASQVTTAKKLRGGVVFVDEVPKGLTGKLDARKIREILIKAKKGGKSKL

[6] = P. falciparum Dd2 growth inhibitors, dose response, SYBR Green, cherry-picked samples (AID 1159567); format: functional, cell-based
Cytochrome P450 2C19 = Cytochrome P450 2C19 (Homo sapiens, UniProt P33261); experiment: Cytochrome panel assay with activity outcomes. Panel member name: p450-cyp2c19 Compounds with AC50 equal or less than 10 uM are considered active; format: functional; settings: read-out: AC50
Sequence of Cytochrome P450 2C19 (P33261 whole entry): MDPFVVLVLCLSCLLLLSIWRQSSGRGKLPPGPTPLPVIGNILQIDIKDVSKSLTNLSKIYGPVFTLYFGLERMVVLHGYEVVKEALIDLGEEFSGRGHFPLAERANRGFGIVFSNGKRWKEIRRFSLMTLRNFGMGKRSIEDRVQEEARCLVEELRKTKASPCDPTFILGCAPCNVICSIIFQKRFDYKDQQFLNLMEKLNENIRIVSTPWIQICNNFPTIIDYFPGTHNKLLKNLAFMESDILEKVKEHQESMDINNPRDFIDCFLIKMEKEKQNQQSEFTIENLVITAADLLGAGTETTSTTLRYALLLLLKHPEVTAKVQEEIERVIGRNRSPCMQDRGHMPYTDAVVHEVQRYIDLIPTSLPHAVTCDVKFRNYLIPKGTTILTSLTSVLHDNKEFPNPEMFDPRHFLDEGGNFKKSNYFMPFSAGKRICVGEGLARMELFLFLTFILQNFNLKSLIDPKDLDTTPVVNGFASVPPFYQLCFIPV

Cytochrome P450 2C9 = Cytochrome P450 2C9 (Homo sapiens, UniProt P11712)
Sequence of Cytochrome P450 2C9 (P11712 whole entry): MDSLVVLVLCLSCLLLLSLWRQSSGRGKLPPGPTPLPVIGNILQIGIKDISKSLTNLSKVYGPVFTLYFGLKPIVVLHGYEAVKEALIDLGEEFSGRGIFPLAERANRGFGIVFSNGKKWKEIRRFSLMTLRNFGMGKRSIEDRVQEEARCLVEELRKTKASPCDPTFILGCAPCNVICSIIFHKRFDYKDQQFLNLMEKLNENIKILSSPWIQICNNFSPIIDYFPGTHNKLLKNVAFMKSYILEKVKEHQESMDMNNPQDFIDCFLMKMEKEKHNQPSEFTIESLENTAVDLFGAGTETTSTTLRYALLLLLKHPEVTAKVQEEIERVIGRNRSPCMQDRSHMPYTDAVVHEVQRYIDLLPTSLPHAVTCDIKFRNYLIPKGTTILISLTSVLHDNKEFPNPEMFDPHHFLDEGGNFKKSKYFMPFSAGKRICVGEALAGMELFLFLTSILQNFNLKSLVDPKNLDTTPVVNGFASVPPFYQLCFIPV

Row | Compound | IC50 [1] | EC50 [2] | EC50 [3] | other results
1 | Nc1nc(NCc2ccco2)nc(NC2CCCCC2)c1[N+](=O)[O-] |  |  | > 195 µM (not active) | 
2 | CCOC(=O)C1CCCN(C(=O)CCCn2nc(C)n3c(cc4sccc43)c2=O)C1 (stereo unspecified) |  |  |  | EC50 [4]: > 112 µM (not active); EC50 [5]: > 112 µM (not active)
3 | COc1ccccc1S(=O)(=O)N[C@H]1CC[C@@H](CCn2cc(C3CCCC3)nn2)O[C@@H]1CO |  |  |  | AC50 [6]: 11.5 µM (active)
4 | CCOc1ccc(CN2CCN(CCCn3cccn3)CC2CCO)cc1 (stereo unspecified) |  |  |  | EC50 [4]: 83.2 µM (active); EC50 [5]: > 112 µM (not active)
5 | CC(C)(C)[S+]([O-])N1Cc2cc(C(=O)N[C@@H]3CCN(Cc4ccccc4)C3)nc(-c3cccc(C#CCC4CCCC4)c3)c2[C@H]1CCO (stereo partly specified) |  |  |  | AC50 [6]: 3.75 µM (active)
6 | Cc1cccc(CN2CCNC2=O)c1 |  |  | > 195 µM (not active) | 
7 | CN(C)c1c([N+](=O)[O-])ncn1C | > 47.1 µM (inactive) | > 53 µM (inactive) |  | 
8 | COc1ccc(Br)cc1CNC(=O)c1ccc2c(c1)N(C)CCS2 |  |  |  | EC50 [4]: > 112 µM (not active); EC50 [5]: > 112 µM (not active)
9 | CCN(CCO)Cc1csc2cccc(Br)c12 | > 47.1 µM (inactive) | > 53 µM (inactive) |  | AC50 (Cytochrome P450 2C19): 22.4 µM (inconclusive)
10 | COc1ccc(CN2CC3(C2)CN(Cc2ccc4c(c2)OCO4)[C@H](CO)c2[nH]c4cc(OC)ccc4c23)cc1 |  |  |  | AC50 [6]: 3.49 µM (active)
11 | Cn1nc(N)c2ncc(C(Cl)(Cl)Cl)nc21 | > 47.1 µM (inactive) | > 53 µM (inactive) |  | 
12 | C[C@H]1CN([C@@H](C)CO)C(=O)c2cc(NC(=O)Cc3cn(C)c4ccccc34)ccc2O[C@H]1CN(C)S(=O)(=O)c1ccccc1 |  |  |  | AC50 [6]: 4.86 µM (active)

More lines, main results first:

Row | IC50 [1] | EC50 [2] | EC50 [3] | Compound | other results
13 | > 47.1 µM (inactive) | > 53 µM (inactive) |  | CC1=C(C(=O)OC(C)(C)C)C(c2cccc3ccccc23)NC(=O)N1 (stereo unspecified) | 
14 | > 47.1 µM (inactive) | > 53 µM (inactive) |  | COc1ccc2[nH]cc(CCN=C(S)NC3CCCC3)c2c1 | 
15 | > 47.1 µM (inactive) | > 53 µM (inactive) |  | CC(=O)Nc1ccc(NC(=O)C(C)OC(=O)C2CCCCC2)cc1 (stereo unspecified) | 
16 |  |  | > 195 µM (not active) | CCOc1cc(/C=N/NC(=O)c2cccc(S(=O)(=O)N3CCOCC3)c2)ccc1OCC(=O)N(C)C | 
17 | > 47.1 µM (inactive) | > 53 µM (inactive) |  | CCCN(C(=O)CSc1n[nH]c(-c2ccc(OC)cc2)n1)c1c(N)n(Cc2ccccc2)c(=O)[nH]c1=O | 
18 | > 47.1 µM (inactive) | > 53 µM (inactive) |  | Cc1ccccc1Nc1scc(-c2ccc(Br)cc2)[n+]1-c1ccccc1C | 
19 | > 47.1 µM (inactive) | > 53 µM (inactive) |  | COc1ccc(C2=NN(C)/C(=N\Cc3ccccc3)SC2)cc1 | 
20 |  |  | > 195 µM (not active) | O=C1C2CCCN2c2ccc(S(=O)(=O)N3CCOCC3)cc2N1Cc1cccc(C(F)(F)F)c1 (stereo unspecified) | AC50 (Cytochrome P450 2C19): 3.55 µM (inconclusive)
21 |  |  | > 195 µM (not active) | COc1ccc(N2C(=O)C(C)(C)C2c2c(O)ccc3ccccc23)cc1 (stereo unspecified) | 
22 |  |  | > 195 µM (not active) | Cc1cccc(Nc2ccncc2S(=O)(=O)NC(=O)NC(C)C)c1 [TORSEMIDE] | AC50 (Cytochrome P450 2C9): 12.6 µM (inconclusive)
23 |  |  | > 195 µM (not active) | CCn1c(C(=O)O)c(CC(=O)Nc2ccccc2OC)c2ccccc21 | 
24 |  |  | > 195 µM (not active) | CCOC(=O)CSc1nnc(-c2ccccc2)c(-c2ccccc2)n1 | 
25 |  |  | > 195 µM (not active) | Cc1ccc(S(=O)(=O)NC(=NCc2ccccc2)c2ccc(F)cc2)cc1 | 
26 |  |  | > 195 µM (not active) | CCc1nn(CC(=O)N2CCC(C(N)=O)CC2)c(=O)c2cc3occc3n12 | 
27 |  |  | > 195 µM (not active) | Cc1ccc(S(=O)(=O)N2CCN(C(=O)c3c(-c4ccccc4)noc3C)CC2)c(C)c1 | 
28 |  |  | > 195 µM (not active) | CCCCn1c(=O)n(CC(=O)Nc2c(CC)cccc2CC)c(=O)c2c1nc(CO)n2CCC | 
29 |  |  | > 195 µM (not active) | CCCCNC(=O)CN=C(S)N(Cc1ccccc1)Cc1cccs1 | 
30 | 34.8 µM (active) | > 53 µM (inactive) |  | Nc1cc(OC(=O)c2ccco2)nn1S(=O)(=O)c1ccc(F)cc1 | 
